The text below walks through data of patent US6518278B1, “Carcinostatic substance for compatible administration, process of administrating same and process of rapidly inspecting same” (Debio Pharm S.A., priority 1994, dated 2003).

For the assay, the system named is human leutecyte strain cell (RPMI-8402). The assay can be described thus: Extinction effect of compatible administration of l-OHP and a compatible agent on tumor cells (compatible efficiency OE). The assay is classed as cell-based. Conditions: for Compatible Effects of l-OHP and Compatible Agent, Simultaneous Administration: both added day 1. The protocol:
In the evaluation of the extinction effect of the tumor cells of the respective combinations, a pure extinction effect produced by the compatible administration of the compatible agent and the l-OHP is calculated by subtracting an extinction effect of a control (no carcinostatic substance is employed).
The compatibly administration effect is calculated by employing an Equation (1) described later. When the value (%) calculated by this Equation is between 85 and 115%, the compatible administration effect is evaluated to be an additive effect. When the value is below 85%, it is evaluated to be below the additive effect. When the value is over 115%, it is evaluated to be a synergistic effect, ±15% is a reliability limit or a measurement error.
A target tumor cell was a human leutecyte strain cell (RPMI-8402 of Gibuko K.K.). To these cells was added blood serum of a cow embryo (15%, Gibuko K.K.) to prepare a cell floating liquid of which the number of the cells was 10^6/ml in a cultivation bottle (tradename; Sumiron of Sumitomo Bakelite o., Ltd.) having a volume of 6 ml. A plenty of the cultivation bottles having the cell floating liquid therein were prepared, and the following experiments were conducted while selecting one kind of a compatible agent among cisplatin, 5-FU, irinotecane, adriamycin, etoposide, mitomycin, mitoxantrone, bleomycin, vincristin and vindecin. The time schedules of the controls (no addition of medicines, addition of only the l-OHP and addition of only a compatible agent, and specified in the below items (1) to (4)) and of the compatible administration of the compatible agent and the l-OHP are shown in FIG. 10.
(1) No medicine was added (control).
(2) Only the l-OHP was added at a second day.
(3) A large amount of compatible agents were added at a first day ([…] of the cisplatin, 10 μg/ml of the 5-FU, 0.05 μg/ml of the adriamycin and 1 μg/ml of the etoposide, and for the comparison purpose, 0.05 μg/ml of the vincristin and 0.06 μg/ml of the vindecin). The adding amount of the irinotecano was fixed to 10 μg/ml, and the addition amount of the l-OHP was 5 μg/ml.
(4) A small amount of compatible agents were added at a first day (0.5 μg/ml of the cisplatin, 5 μg/ml of the 5-FU, 0.01 μg/ml of the adriamycin and 0.5 μg/ml of the etoposide, and for the comparison purpose, 0.01 μg/ml of the vincristin and 0.01 μg/ml of the vindecin). The adding amount of the irinotecane was fixed to 10 μg/ml, and the addition amount of the l-OHP was 1 μg/ml.
(5) The l-OHP and a large amount (the same as that of the above item (3) and so forth in the following items) of the compatible agents were simultaneously added at a first day.
(6) The l-OHP and a small amount (the same as that of the above item (4) and so forth in the following items) of the compatible agents were simultaneously added at a first day.
(7) The l-OHP was added at a first day and a large amount of the compatible agents were added at a second day.
(8) The l-OHP was added at a first day and a small amount of the compatible agents were added at a second day.
(9) The l-OHP was added at a first day and a large amount of the compatible agents were added at a third day.
(10) The l-OHP was added at a first day and a small amount of the compatible agents were added at a third day.
(11) The l-OHP was added at a first day and a large amount of the compatible agents were added at a fourth day.
(12) The l-OHP was added at a first day and a small amount of the compatible agents were added at a fourth day.
(13) A large amount of the compatible agents were added at a first day and the l-OHP was added at a second day.
(14) A small amount of the compatible agents were added at a first day and the l-OHP was added at a second day.
(15) A large amount of the compatible agents were added at a first day and the l-OHP was added at a third day.
(16) A small amount of the compatible agents were added at a first day and the l-OHP was added at a third day.

Setting [1] is: larger dosage of compatible agent (μg/ml: cisplatin 1, 5-FU 10, irinotecane 10, adriamycin 0.05, vincristin 0.05, vindecin 0.05, etoposide 1, bleomycin 10, mitoxantrone 0.1, mitomycine 1), l-OHP 1 μg/ml (5 μg/ml with irinotecane) added day 1.
Where [2] appears, read: larger dosage of compatible agent (μg/ml: cisplatin 1, 5-FU 10, irinotecane 10, adriamycin 0.05, vincristin 0.05, vindecin 0.05, etoposide 1, bleomycin 10, mitoxantrone 0.1, mitomycine 1), l-OHP 1 μg/ml (5 μg/ml with irinotecane).
[3] abbreviates: larger dosage of compatible agent added day 1 (μg/ml: cisplatin 1, 5-FU 10, irinotecane 10, adriamycin 0.05, vincristin 0.05, vindecin 0.05, etoposide 1, bleomycin 10, mitoxantrone 0.1, mitomycine 1), l-OHP 1 μg/ml (5 μg/ml with irinotecane).
[4] abbreviates: smaller dosage of compatible agent (μg/ml: cisplatin 0.5, 5-FU 5, irinotecane 10, adriamycin 0.01, vincristin 0.01, vindecin 0.01, etoposide 0.5, bleomycin 1, mitoxantrone 0.05, mitomycine 0.5), l-OHP 1 μg/ml added day 1.
Setting [5] is: smaller dosage of compatible agent (μg/ml: cisplatin 0.5, 5-FU 5, irinotecane 10, adriamycin 0.01, vincristin 0.01, vindecin 0.01, etoposide 0.5, bleomycin 1, mitoxantrone 0.05, mitomycine 0.5), l-OHP 1 μg/ml.
Setting [6] is: smaller dosage of compatible agent added day 1 (μg/ml: cisplatin 0.5, 5-FU 5, irinotecane 10, adriamycin 0.01, vincristin 0.01, vindecin 0.01, etoposide 0.5, bleomycin 1, mitoxantrone 0.05, mitomycine 0.5), l-OHP 1 μg/ml.

“And” between values parts separate entries of the source, which are not always exact repeats. Equal entries are not always repeated. “Also recorded” adds a separate entry of the source.

Regarding `O=c1[nH]cc(F)c(=O)[nH]1` [5-FU, 5-fluorouracil], the “compatible administration effect with l-OHP, summary in words” value (“compatible administration effect” below) is given as “twice an expected value; also recorded: synergistic effects can be obtained in almost all the administration conditions”. Further, the “compatible administration effect” value (listed as 6-FU) is “the additive effect or the synergistic effect regardless of the administration method and the dosage in almost all the cases”. Also, under setting [1], the “Compatible Effects of l-OHP and Compatible Agent, Time Lag Administration, Addition Administration of Compatible Agent day 2” value (from here on “Compatible Effects … of Compatible Agent day 2”) is reported as “• (•: Synergistic Effect)”; the “Compatible Effects of l-OHP and Compatible Agent, Time Lag Administration, Addition Administration of Compatible Agent day 3” value (“Compatible Effects … of Compatible Agent day 3” below) is on record as “• (•: Synergistic Effect)”; the “Compatible Effects of l-OHP and Compatible Agent, Time Lag Administration, Addition Administration of Compatible Agent day 4” value (shortened to “Compatible Effects … of Compatible Agent day 4”) is on record as “• (•: Synergistic Effect)”. The “Compatible Effects of l-OHP and Compatible Agent, Simultaneous Administration” value (“Compatible Effects … Simultaneous Administration” for short) under setting [2] was “• (•: Synergistic Effect)”. Under setting [3], the “Compatible Effects of l-OHP and Compatible Agent, Time Lag Administration, Addition Administration of l-OHP day 2” value (“Compatible Effects … of l-OHP day 2” for short) is on record as “• (•: Synergistic Effect)”; the “Compatible Effects of l-OHP and Compatible Agent, Time Lag Administration, Addition Administration of l-OHP day 3” value (“Compatible Effects … of l-OHP day 3” for short) is listed as “• (•: Synergistic Effect)”; the “Compatible Effects of l-OHP and Compatible Agent, Time Lag Administration, Addition Administration of l-OHP day 4” value (“Compatible Effects … of l-OHP day 4” for short) is listed as “• (•: Synergistic Effect)”. Besides, the “effect as % of the expected value (compatible efficiency)” value (simultaneous administration with l-OHP, which dosage gives which value is not given) was 180% and 150%. Besides, under setting [4], the “Compatible Effects … of Compatible Agent day 2” value is on record as “◯ (◯: Additive Effect)”; the “Compatible Effects … of Compatible Agent day 3” value was “• (•: Synergistic Effect)”; the “Compatible Effects … of Compatible Agent day 4” value was “• (•: Synergistic Effect)”. Also, under setting [5], the “Compatible Effects … Simultaneous Administration” value is given as “• (•: Synergistic Effect)”. Under setting [6], the “Compatible Effects … of l-OHP day 2” value was “• (•: Synergistic Effect)”; the “Compatible Effects … of l-OHP day 3” value was “◯ (◯: Additive Effect)”; the “Compatible Effects … of l-OHP day 4” value is reported as “• (•: Synergistic Effect)”.
Regarding `COc1cccc2c1C(=O)c1c(O)c3c(c(O)c1C2=O)C[C@@](O)(C(=O)CO)C[C@@H]3O[C@H]1C[C@H](N)[C@H](O)[C@H](C)O1` [adriamycin], the “compatible administration effect” value is “the additive effect or the synergistic effect regardless of the administration method and the dosage in almost all the cases; also recorded: synergistic effects can be obtained in almost all the combinations when the l-OHP is added later”. For the same compound, under setting [1], the “Compatible Effects … of Compatible Agent day 2” value is reported as “Δ (Δ: Below Additive Effect)”; the “Compatible Effects … of Compatible Agent day 3” value is on record as “◯ (◯: Additive Effect)”; the “Compatible Effects … of Compatible Agent day 4” value is “◯ (◯: Additive Effect)”. Besides, under setting [2], the “Compatible Effects … Simultaneous Administration” value was “◯ (◯: Additive Effect)”. Under setting [3], the “Compatible Effects … of l-OHP day 2” value is listed as “◯ (◯: Additive Effect)”; the “Compatible Effects … of l-OHP day 3” value is listed as “• (•: Synergistic Effect)”; the “Compatible Effects … of l-OHP day 4” value was “• (•: Synergistic Effect)”. Further, under setting [4], the “Compatible Effects … of Compatible Agent day 2” value was “Δ (Δ: Below Additive Effect)”; the “Compatible Effects … of Compatible Agent day 3” value is on record as “• (•: Synergistic Effect)”; the “Compatible Effects … of Compatible Agent day 4” value is listed as “◯ (◯: Additive Effect)”. Besides, the “Compatible Effects … Simultaneous Administration” value under setting [5] is listed as “◯ (◯: Additive Effect)”. Under setting [6], the “Compatible Effects … of l-OHP day 2” value is “• (•: Synergistic Effect)”; the “Compatible Effects … of l-OHP day 3” value is on record as “◯ (◯: Additive Effect)”; the “Compatible Effects … of l-OHP day 4” value was “• (•: Synergistic Effect)”.
